Results reported in patent publication US6881741B2 (ViroChem Pharma Inc., priority 2001, dated 2005).
Counter-ions that a name gives are not always drawn.

Each molecule was assayed against recombinant HCV NS5B (HCV RNA-dependent RNA polymerase) (Hepatitis C virus genotype 1b, UniProt P26663) (assay: biochemical). Settings: HCV polymerase activity, list of compounds of Example 27; read-out: IC50 (polymerase activity).
recombinant HCV NS5B (HCV RNA-dependent RNA polymerase), sequence (P26663 2420-3010 limits assumed): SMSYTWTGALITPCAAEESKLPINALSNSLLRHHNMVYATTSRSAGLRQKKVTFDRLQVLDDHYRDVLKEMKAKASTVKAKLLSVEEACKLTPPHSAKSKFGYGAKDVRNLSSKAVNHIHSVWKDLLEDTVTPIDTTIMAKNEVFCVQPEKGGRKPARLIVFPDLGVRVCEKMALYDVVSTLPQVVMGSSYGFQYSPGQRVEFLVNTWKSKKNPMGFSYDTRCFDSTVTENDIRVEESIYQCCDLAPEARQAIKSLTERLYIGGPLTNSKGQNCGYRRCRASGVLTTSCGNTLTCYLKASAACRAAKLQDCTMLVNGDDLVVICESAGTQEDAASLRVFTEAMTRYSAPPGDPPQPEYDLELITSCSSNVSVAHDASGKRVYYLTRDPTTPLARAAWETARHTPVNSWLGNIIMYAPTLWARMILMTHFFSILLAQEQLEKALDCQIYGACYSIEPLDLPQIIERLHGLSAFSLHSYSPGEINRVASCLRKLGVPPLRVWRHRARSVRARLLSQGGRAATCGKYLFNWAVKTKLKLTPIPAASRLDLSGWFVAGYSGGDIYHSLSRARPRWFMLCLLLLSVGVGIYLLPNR
For Cc1ccc(S(=O)(=O)Nc2cc(-c3ccccc3)sc2C(=O)NCC(=O)O)cc1 [Compound 551, {[5-PHENYL-3-(TOLUENE-4- SULFONYLAMINO)-THIOPHENE-2- CARBONYL]-AMINO}-ACETIC ACID], the IC50 was 5 to 20 µM. In the case of CC(C1CCN(C(=O)OCc2ccccc2)CC1)N(C(=O)c1ccc(Cl)cc1Cl)c1cc(-c2ccccc2)sc1C(=O)O (centres unmarked) [Compound 523, 4-{1-[(2-CARBOXY-5-PHENYL-THIOPHEN- 3-YL)-(2,4-DICHLORO-BENZOYL)-AMINO]- ETHYL}-PIPERIDINE-1-CARBOXYLIC ACID BENZYL ESTER], the IC50 is reported as 5 to 20 µM. CC(C)N(c1cc(-c2ccc(-c3ccc(Cl)cc3)cc2)sc1C(=O)O)C(=O)[C@H]1CC[C@H](C)CC1 [Compound 571, 5-(4′-CHLORO-BIPHENYL-4-YL)-3- [ISOPROPYL-(4-METHYL- CYCLOHEXANECARBONYL)-AMINO]- THIOPHENE-2-CARBOXYLIC ACID] was tested, and the IC50 was less than 5 µM. CCC1CCC(C(=O)N(c2cc(-c3ccccc3)sc2C(=O)O)C(C)C)CC1 (centres unmarked) [Compound 531, 3-[(4-ETHYL-CYCLOHEXANECARBONYL)- ISOPROPYL-AMINO]-5-PHENYL- THIOPHENE-2-CARBOXYLIC ACID] showed an IC50 of less than 5 µM. With COc1ccc(-c2cc(N(C(=O)C3CCC(C)CC3)C(C)C)c(C(=O)O)s2)cc1 (centres unmarked) [Compound 577, 3-[ISOPROPYL-(4-METHYL- CYCLOHEXANECARBONYL)-AMINO]-5-(4- METHOXY-PHENYL)-THIOPHENE-2- CARBOXYLIC ACID] the IC50 was less than 5 µM. With CC(C)C(=O)N(Cc1ccccc1Cl)c1cc(-c2ccccc2)sc1C(=O)O [Compound 421, 3-[(2-CHLORO-BENZYL)-ISOBUTYRYL- AMINO]-5-PHENYL-THIOPHENE-2- CARBOXYLIC ACID] the IC50 was 5 to 20 µM. CC(C)(C)c1ccc(CN(C(=O)C2CCC2)c2cc(-c3ccccc3)sc2C(=O)O)cc1 [Compound 439, 3-[(4-TERT-BUTYL-BENZYL)- CYCLOBUTANECARBONYL-AMINO]-5- PHENYL-THIOPHENE-2-CARBOXYLIC ACID] gave an IC50 of less than 5 µM. CC1CCC(C(=O)N(c2cc(-c3ccccc3)sc2C(=O)O)C(C)C)C(O)C1 (centres unmarked) [Compound 402, 3-[(2-HYDROXY-4-METHYL- CYCLOHEXANECARBONYL)-ISOPROPYL- AMINO]-5-PHENYL-THIOPHENE-2- CARBOXYLIC ACID] was tested, and the IC50 was less than 5 µM.

Same assay, conditions: related polymerase activity (Example 27 list); read-out: IC50
Molecule Cc1ccccc1S(=O)(=O)Nc1cc(-c2cn[nH]c2)sc1C(=O)O [Compound 170, 5-(1H-PYRAZOL-4-YL)-3-(TOLUENE-2-SULFONYLAMINO)-THIOPHENE-2-CARBOXYLIC ACID] has an IC50 of less than 5 µM. Work on O=C(O)c1sc(-c2ccccc2)cc1NS(=O)(=O)c1ccc(Cl)cc1Cl [Compound 7, 3-(2,4-DICHLORO-BENZENESULFONYLAMINO)-5-PHENYL-THIOPHENE-2-CARBOXYLIC ACID] yielded an IC50 of less than 5 µM. Work on Cc1ccc(C(=O)N(C)c2cc(-c3ccccc3)sc2C(=O)O)cc1 [Compound 93, 3-[METHYL-(4-METHYL-BENZOYL)-AMINO]-5-PHENYL-THIOPHENE-2-CARBOXYLIC ACID] yielded an IC50 of less than 5 µM. Work on Cc1ccc(C(=O)Nc2cc(-c3ccccc3)sc2C(=O)O)cc1 [Compound 92, 3-(4-METHYL-BENZOYLAMINO)-5-PHENYL-THIOPHENE-2-CARBOXYLIC ACID] yielded an IC50 of 5 to 20 µM. Molecule Cc1cc(C(=O)N(C)c2cc(-c3ccccc3)sc2C(=O)O)ccc1Br [Compound 255, 3-[(4-BROMO-3-METHYL-BENZOYL)-METHYL-AMINO]-5-PHENYL-THIOPHENE-2-CARBOXYLIC ACID] has an IC50 of less than 5 µM. With Cc1ccc(C)c(S(=O)(=O)Nc2cc(-c3ccccc3)sc2C(=O)O)c1 [Compound 21, 3-(2,5-DIMETHYL-BENZENESULFONYLAMINO)-5-PHENYL-THIOPHENE-2-CARBOXYLIC ACID] the IC50 was 5 to 20 µM. Nc1ccccc1S(=O)(=O)Nc1cc(-c2ccccc2)sc1C(=O)O [Compound 146, 3-(2-AMINO-BENZENESULFONYLAMINO)-5-PHENYL-THIOPHENE-2-CARBOXYLIC ACID] showed an IC50 of less than 5 µM. In the case of CCOC(=O)c1c(C)oc(-c2ccc(Cl)cc2)c1S(=O)(=O)Nc1cc(-c2ccccc2)sc1C(=O)O [Compound 144, 4-(2-CARBOXY-5-PHENYL-THIOPHEN-3-YLSULFAMOYL)-5-(4-CHLORO-PHENYL)-2-METHYL-FURAN-3-CARBOXYLIC ACID ETHYL ESTER], the IC50 is reported as 5 to 20 µM. CC1CCCCC1C(=O)N(c1cc(-c2ccccc2)sc1C(=O)O)C(C)C (centres unmarked) [Compound 379, 3-[ISOPROPYL-(2-METHYL- CYCLOHEXANECARBONYL)-AMINO]-5- PHENYL-THIOPHENE-2-CARBOXYLIC ACID] gave an IC50 of 5 to 20 µM. In the case of C=CCN(C(=O)Cc1cccc(C)c1)c1cc(-c2ccccc2)sc1C(=O)O [Compound 354, 3-[ALLYL-(2-M-TOLYL-ACETYL)-AMINO]-5- PHENYL-THIOPHENE-2-CARBOXYLIC ACID], the IC50 is reported as 5 to 20 µM. With O=C(O)c1sc(-c2ccccc2)cc1NC(=O)N1CCN(Cc2ccc(Cl)cc2)CC1 [Compound 183, 3-{[4-(4-CHLORO-BENZYL)-PIPERAZINE-1-CARBONYL]-AMINO}-5-PHENYL-THIOPHENE-2-CARBOXYLIC ACID HYDROCHLORIDE] the IC50 was 5 to 20 µM. In the case of CN(C(=O)c1ccccc1Br)c1cc(-c2ccccc2)sc1C(=O)O [Compound 187, 3-[(2-BROMO-BENZOYL)-METHYL-AMINO]-5-PHENYL-THIOPHENE-2-CARBOXYLIC ACID], the IC50 is reported as 5 to 20 µM. Cc1ccc(C(=O)N(c2cc(-c3cccc(C(F)(F)F)c3)sc2C(=O)O)C(C)C)cc1 [Compound 304, 3-[ISOPROPYL-(4-METHYL-BENZOYL)- AMINO]-5-(3-TRIFLUOROMETHYL- PHENYL)-THIOPHENE-2-CARBOXYLIC ACID] gave an IC50 of less than 5 µM. For Cc1ccc(C(=O)N(C)c2cc(-c3ccc(C)cc3)sc2C(=O)O)cc1 [Compound 199, 3-[METHYL-(4-METHYL-BENZOYL)-AMINO]-5-P-TOLYL-THIOPHENE-2-CARBOXYLIC ACID], the IC50 was 5 to 20 µM. For Cc1ccc(C(=O)N(c2cc(-c3cccc(C)c3)sc2C(=O)O)C(C)C)cc1 [Compound 305, 3-[ISOPROPYL-(4-METHYL-BENZOYL)- AMINO]-5-M-TOLYL-THIOPHENE-2- CARBOXYLIC ACID], the IC50 was less than 5 µM. Molecule CC(=O)c1cc(-c2cc(NS(=O)(=O)c3ccc(C)cc3C)c(C(=O)O)s2)cs1 [Compound 367, 5′-ACETYL-4-(2,4-DIMETHYL- BENZENESULFONYLAMINO)- [2,3′]BITHIOPHENYL-5-CARBOXYLIC ACID] has an IC50 of less than 5 µM. O=C(O)c1sc(-c2ccccc2)cc1NS(=O)(=O)c1ccccc1Cl [Compound 29, 3-(2-CHLORO-BENZENESULFONYLAMINO)-5-PHENYL-THIOPHENE-2-CARBOXYLIC ACID] gave an IC50 of 5 to 20 µM. O=C(O)c1sc(-c2ccccc2)cc1NS(=O)(=O)c1ccc(-c2csnn2)s1 [Compound 46, 5-PHENYL-3-(5-[1,2,3]THIADIAZOL-4-YL-THIOPHENE-2-SULFONYLAMINO)-THIOPHENE-2-CARBOXYLIC ACID] showed an IC50 of 5 to 20 µM. Cc1ccccc1S(=O)(=O)Nc1cc(-c2ccc(O)cc2)sc1C(=O)O [Compound 190, 5-(4-HYDROXY-PHENYL)-3-(TOLUENE-2-SULFONYLAMINO)-THIOPHENE-2-CARBOXYLIC ACID] showed an IC50 of less than 5 µM. CC(C)N(C(=O)c1cc(F)c(Cl)cc1F)c1cc(-c2ccccc2)sc1C(=O)O [Compound 337, 3-[(4-CHLORO-2,5-DIFLUORO-BENZOYL)- ISOPROPYL-AMINO]-5-PHENYL- THIOPHENE-2-CARBOXYLIC ACID] gave an IC50 of 5 to 20 µM. O=C(O)c1sc(-c2ccccc2)cc1NC(=O)N1CCN(c2ccccc2Cl)CC1 [Compound 159, 3-{[4-(2-CHLORO-PHENYL)-PIPERAZINE-1-CARBONYL]-AMINO}-5-PHENYL-THIOPHENE-2-CARBOXYLIC ACID] was tested, and the IC50 was 5 to 20 µM.
